Results reported in ChEMBL document CHEMBL1143942, “Deoxygenated phosphorothioate inositol phosphate analogs: synthesis, phosphatase stability, and binding affinity” (Bioorg Med Chem, 2008).
Active and inactive are the calls of the source. The rule behind the calls is not given here.

Key:
[1] = Displacement of [3H]Ins(1,4,5)P3 from Ins(1,4,5)P3 receptor in bovine adrenal cortex; type: tissue-based, Bos taurus
[2] = Inhibition of alkaline phosphatase
[3] = Chemical stability in presence of alkaline phosphatase; type: physicochemical

## O[C@@H]1[C@@H](OP(O)(O)=S)[C@H](OP(O)(O)=S)CC[C@H]1OP(O)(O)=S
[1]
  Kd: 810 nM
[2]
  Activity: inactive
[3]; isolated protein
  Stability: Stable

## O=P(O)(O)O[C@@H]1[C@H](O)[C@H](O)[C@@H](OP(=O)(O)O)[C@H](OP(=O)(O)O)[C@H]1O [INS(1,4,5)P3]
[3]
  Kd: 54 nM
